# Test results reported in ChEMBL document CHEMBL3045363, “Synthesis of 3-methylflavones and their antioxidant and antibacterial activities” (Med Chem Res, 2012).
# Columns and labels:
# Format in all cases: functional
# Klebsiella pneumoniae = assay: Antimicrobial activity against Klebsiella pneumoniae at 1 ug/ul after 24 hr by agar diffusion method
# Pseudomonas aeruginosa = assay: Antimicrobial activity against Pseudomonas aeruginosa at 1 ug/ul after 24 hr by agar diffusion method
# Escherichia coli = assay: Antimicrobial activity against Escherichia coli at 1 ug/ul after 24 hr by agar diffusion method
# Bacillus cereus = assay: Antimicrobial activity against Bacillus cereus at 1 ug/ul after 24 hr by agar diffusion method
# Bacillus subtilis = assay: Antimicrobial activity against Bacillus subtilis at 1 ug/ul after 24 hr by agar diffusion method
# Staphylococcus aureus = assay: Antimicrobial activity against Staphylococcus aureus at 1 ug/ul after 24 hr by agar diffusion method
# [1] = Antioxidant activity assessed as DPPH scavenging activity after 20 min by spectrophotometry
IC50 [1] [µg/mL],Compound,growth inhibition (GI) (Klebsiella pneumoniae) [%],growth inhibition (GI) (Pseudomonas aeruginosa) [%],growth inhibition (GI) (Escherichia coli) [%],growth inhibition (GI) (Bacillus cereus) [%],growth inhibition (GI) (Bacillus subtilis) [%],growth inhibition (GI) (Staphylococcus aureus) [%]
208.3,Cc1c(-c2ccccc2F)oc2ccccc2c1=O,52,47,47,60,26,55
250,Cc1cccc(-c2oc3ccccc3c(=O)c2C)c1,70,56,50,80,69,76
142.86,COc1ccccc1-c1oc2ccccc2c(=O)c1C,62,45,52,51,59,61
156.25,COc1cccc(-c2oc3ccccc3c(=O)c2C)c1,40,59,50,65,74,43
79.37,Cc1c(-c2ccccc2O)oc2ccccc2c1=O,70,43,38,50,83,70
104.16,Cc1c(-c2ccc(N(C)C)cc2)oc2ccccc2c1=O,50,46,51,50,55,58
102.04,Cc1ccc(-c2oc3ccccc3c(=O)c2C)cc1,60,43,42,62,38,60
58.82,Cc1c(-c2ccc(N(C)C)cc2)oc2cc(O)ccc2c1=O,50,51,29,57,50,55
156.25,Cc1ccccc1-c1oc2ccccc2c(=O)c1C,40,52,40,50,49,53
192.3,Cc1c(-c2ccccc2Cl)oc2ccccc2c1=O,59,44,51,60,25,57
100,COc1ccc(-c2oc3ccccc3c(=O)c2C)cc1,60,46,41,68,46,66
104,Cc1c(-c2ccc(O)cc2)oc2ccccc2c1=O,80,37,47,81,56,74
80.64,COc1ccc2c(=O)c(C)c(-c3ccc(Cl)cc3)oc2c1,87,28,28,90,46,65
131.57,Cc1c(-c2ccc([N+](=O)[O-])cc2)oc2ccccc2c1=O,85,57,31,89,60,77
70.42,Cc1c(-c2ccccc2Br)oc2ccccc2c1=O,78,42,34,80,39,81
98.04,Cc1c(-c2ccc(Cl)cc2)oc2ccccc2c1=O,81,47,33,85,68,74
113.64,Cc1c(-c2ccc(F)cc2)oc2ccccc2c1=O,70,48,31,75,81,73
111.11,Cc1c(-c2ccc(Br)cc2)oc2ccccc2c1=O,72,51,27,62,82,58
200,COc1ccc2c(=O)c(C)c(-c3ccccc3)oc2c1,41,51,34,50,63,59
106.38,Cc1c(-c2ccccc2)oc2ccccc2c1=O [3-METHYL-2-PHENYL-4H-CHROMEN-4-ONE],75,48,41,80,44,47
17.6,O=C1O[C@H]([C@@H](O)CO)C(O)=C1O [ASCORBIC ACID],–,–,–,–,–,–
